Experimental data taken from article PMC12022903, “Evaluation of drug-drug interaction between Suraxavir Marboxil (GP681) and itraconazole, and assessment of the impact of gene polymorphism” (Frontiers in Pharmacology, 2025).
Like-named read-outs stand apart in the source and are kept apart here.

Legend:
OATP1B1 = tested on: OATP1B1; parameters: method as in unpublished data; settings: preclinical studies; ref unpublished data; cited from earlier work
BCRP = tested on: BCRP; parameters: method as in unpublished data; settings: preclinical studies; ref unpublished data; cited from earlier work
OATP1B3 = tested on: OATP1B3; parameters: method as in unpublished data; settings: preclinical studies; ref unpublished data; cited from earlier work
liver enzymes = tested on: liver enzymes; parameters: method as in unpublished data; settings: preclinical studies; ref unpublished data; cited from earlier work
[1] = parameters: method as in unpublished data; settings: within 336 h after oral administration; ref unpublished data; cited from earlier work
[2] = type: in vivo
Procedure: This single-center, open-label, self-controlled, fixed-sequence study, sponsored by Qingfeng Pharmaceutical Group Co., Ltd., was conducted at a single clinical research site in the China–Japan Friendship Hospital (Beijing, China). Each subject received the following treatment: Suraxavir Marboxil (GP681) 20 mg in the fasted state on day 1 and day 26. Itraconazole capsules (Sporanox®: Xi’an Yangsen Pharmaceutical Co., Ltd., China) 0.2 g twice daily (BID, bis in die) on day 22. Itraconazole 0.2 g daily from day 23 to day 36 [including day 26, when itraconazole was co-administrated with Suraxavir Marboxil (GP681)]. The washout period is 21 days (Figure 2).
Safety was assessed through physical examination, vital sign measurements, clinical laboratory tests, 12-lead electrocardiograms, and assessment of self-reported symptoms. Adverse events were collected from the first dose through the end of the study. All safety data collected were assessed for severity and relationship to each study drug, Suraxavir Marboxil (GP681) or itraconazole. The severity of an adverse event was graded according to Common Terminology Criteria for Adverse Events (CTCAE) v5.0. For each adverse event occurred, investigators continued to follow up until it was resolved. Adverse event analysis is based on Safety Set (SS), coded with MedDRA version 26.0. Adverse events will be summarized by system organ class (SOC) and preferred term (PT) in terms of number of cases, occurrences, and incidence rate.

[3] = parameters: method as in unpublished data; settings: preclinical studies; ref unpublished data; cited from earlier work
carboxylesterase CES2 = tested on: carboxylesterase CES2; parameters: method as in unpublished data; settings: preclinical studies; ref unpublished data; cited from earlier work
MDR1 [4] = tested on: MDR1; parameters: method as in unpublished data; settings: preclinical studies; ref unpublished data; cited from earlier work
OAT3 = tested on: OAT3; parameters: method as in unpublished data; settings: preclinical studies; ref unpublished data; cited from earlier work
MDR1 [5] = tested on: MDR1; parameters: method as in unpublished data; settings: preclinical studies; ref unpublished data; cited from earlier work; remark: listed apart in the source
[6] = quantification limit 0.3 ng/mL
OAT1 = tested on: OAT1; parameters: method as in unpublished data; settings: preclinical studies; ref unpublished data; cited from earlier work
[7] = N = 12, treatment stage given by label

COC(=O)OCOc1c2n(ccc1=O)N([C@@H]1c3ccccc3SCc3c1ccc(F)c3F)[C@@H]1COC3(CC3)CN1C2=O [GP681, (((R)-12'-((S)-7,8-difluoro-6, 11-dihydro-2-benzothiophene-11-yl)-6′, 8′-dioxide-6′, 8′, 12′, 12a′-tetrahydro-1′H-, 4′H-spiro [cyclopropane-1, 3'-[1, 4]oxazine [3,4-c]pyridine and [2,1-f] [1,2, 4]triazine]-7′-yl)oxy) methyl carbonate]
inhibition of transport activity of OATP1B1 (OATP1B1): nor do they inhibit the transport activity
substrate for the BCRP transporter (BCRP): Neither Suraxavir Marboxil (GP681) nor its metabolite, GP1707D07, serves as substrates
inhibition of transport activity of OATP1B3 (OATP1B3): nor do they inhibit the transport activity
inhibition or induction of liver enzymes (liver enzymes): do not significantly inhibit or induce liver enzymes
radioactivity recovery in feces [1]: 84.1%
radioactivity recovery in urine [1]: 6.0%
total radioactivity recovery rate [1]: 90.1%
TEAE Alanine aminotransferase increased: no. of TEAEs [2, 7]: 1
TEAE Alanine aminotransferase increased: no. of subjects (percent of subjects) [2, 7]: 1 (8.3)
TEAE Basophil count increased: no. of subjects (percent of subjects) [2, 7]: 0
TEAE Gamma-glutamyltransferase increased: no. of TEAEs [2, 7]: 1
TEAE Gamma-glutamyltransferase increased: no. of subjects (percent of subjects) [2, 7]: 1 (8.3)
TEAE Hemoglobin decreased: no. of TEAEs [2, 7]: 1
TEAE Hemoglobin decreased: no. of subjects (percent of subjects) [2, 7]: 1 (8.3)
TEAE Hepatobiliary disorders: no. of subjects (percent of subjects) [2, 7]: 0
TEAE Hyperbilirubinemia: no. of subjects (percent of subjects) [2, 7]: 0
TEAE Hypertriglyceridemia: no. of TEAEs [2, 7]: 1
TEAE Hypertriglyceridemia: no. of subjects (percent of subjects) [2, 7]: 1 (8.3)
TEAE Hyperuricemia: no. of TEAEs [2, 7]: 1
TEAE Hyperuricemia: no. of subjects (percent of subjects) [2, 7]: 1 (8.3)
TEAE Hypophosphatemia: no. of subjects (percent of subjects) [2, 7]: 0
TEAE Investigations: no. of TEAEs [2, 7]: 7
TEAE Investigations: no. of subjects (percent of subjects) [2, 7]: 4 (33.3)
TEAE Lymphocyte count decreased: no. of TEAEs [2, 7]: 1
TEAE Lymphocyte count decreased: no. of subjects (percent of subjects) [2, 7]: 1 (8.3)
TEAE Metabolism and nutrition disorders: no. of TEAEs [2, 7]: 2
TEAE Metabolism and nutrition disorders: no. of subjects (percent of subjects) [2, 7]: 2 (16.7)
TEAE Occult blood in urine: no. of TEAEs [2, 7]: 1
TEAE Occult blood in urine: no. of subjects (percent of subjects) [2, 7]: 1 (8.3)
TEAE Overall total: no. of TEAEs [2, 7]: 9
TEAE Overall total: no. of subjects (percent of subjects) [2, 7]: 5 (41.7)
TEAE Red blood cell increased: no. of TEAEs [2, 7]: 1
TEAE Red blood cell increased: no. of subjects (percent of subjects) [2, 7]: 1 (8.3)
TEAE Total bile acid increased: no. of TEAEs [2, 7]: 1
TEAE Total bile acid increased: no. of subjects (percent of subjects) [2, 7]: 1 (8.3)
TEAE White blood cell increased: no. of subjects (percent of subjects) [2, 7]: 0
TEAE related to GP681, Alanine aminotransferase increased: no. of TEAEs [2, 7]: 1[1]
TEAE related to GP681, Alanine aminotransferase increased: no. of subjects [2, 7]: 1[1]
TEAE related to GP681, Gamma-glutamyltransferase increased: no. of TEAEs [2, 7]: 1[1]
TEAE related to GP681, Gamma-glutamyltransferase increased: no. of subjects [2, 7]: 1[1]
TEAE related to GP681, Hemoglobin decreased: no. of TEAEs [2, 7]: 1[1]
TEAE related to GP681, Hemoglobin decreased: no. of subjects [2, 7]: 1[1]
TEAE related to GP681, Hypertriglyceridemia: no. of TEAEs [2, 7]: 1[1]
TEAE related to GP681, Hypertriglyceridemia: no. of subjects [2, 7]: 1[1]
TEAE related to GP681, Hypophosphatemia: no. of TEAEs [2, 7]: 1[1]
TEAE related to GP681, Hypophosphatemia: no. of subjects [2, 7]: 1[1]
TEAE related to GP681, Investigations: no. of TEAEs [2, 7]: 7
TEAE related to GP681, Investigations: no. of subjects [2, 7]: 3
TEAE related to GP681, Lymphocyte count decreased: no. of TEAEs [2, 7]: 1[1]
TEAE related to GP681, Lymphocyte count decreased: no. of subjects [2, 7]: 1[1]
TEAE related to GP681, Metabolism and nutrition disorders: no. of TEAEs [2, 7]: 2[2]
TEAE related to GP681, Metabolism and nutrition disorders: no. of subjects [2, 7]: 2[2]
TEAE related to GP681, Occult blood in urine: no. of TEAEs [2, 7]: 1[1]
TEAE related to GP681, Occult blood in urine: no. of subjects [2, 7]: 1[1]
TEAE related to GP681, Overall total: no. of TEAEs [2, 7]: 9
TEAE related to GP681, Overall total: no. of subjects [2, 7]: 4
TEAE related to GP681, Red blood cell increased: no. of TEAEs [2, 7]: 1[1]
TEAE related to GP681, Red blood cell increased: no. of subjects [2, 7]: 1[1]
TEAE related to GP681, Total bile acid increased: no. of TEAEs [2, 7]: 1[1]
TEAE related to GP681, Total bile acid increased: no. of subjects [2, 7]: 1[1]
TEAE Overall total: no. of subjects (percent of subjects) ([2]; N = 12, treatment stage given by label, listed as Suraxavir Marboxil (GP681)): 5
TEAE related to GP681, Overall total: no. of TEAEs ([2]; Total over the study, N = 12): 11
TEAE related to GP681, Overall total: no. of subjects ([2]; Total over the study, N = 12): 5
serious adverse events ([2]; whole study, 12 subjects): No serious adverse events
detection of prodrug in plasma following oral administration [3]: scarcely detected in plasma
route of excretion [3]: mainly excreted in feces
conversion of prodrug to active form (carboxylesterase CES2): converted to an active form GP1707D07 by carboxylesterase CES2
inhibition of transport activity of MDR1 (MDR1 [4]): nor do they inhibit the transport activity
inhibition of transport activity of OAT3 (OAT3): nor do they inhibit the transport activity
substrate for the MDR1 transporter (MDR1 [5]): Neither Suraxavir Marboxil (GP681) nor its metabolite, GP1707D07, serves as substrates
plasma concentrations of GP681 in all the rest of blood samples [6]: below the quantification limit
inhibition of transport activity of OAT1 (OAT1): nor do they inhibit the transport activity

CCC(C)n1ncn(-c2ccc(N3CCN(c4ccc(OCC5COC(Cn6cncn6)(c6ccc(Cl)cc6Cl)O5)cc4)CC3)cc2)c1=O (stereo not shown) [Itraconazole]
TEAE Alanine aminotransferase increased: no. of TEAEs [2, 7]: 1
TEAE Alanine aminotransferase increased: no. of subjects (percent of subjects) [2, 7]: 1 (8.3)
TEAE Basophil count increased: no. of subjects (percent of subjects) [2, 7]: 0
TEAE Gamma-glutamyltransferase increased: no. of subjects (percent of subjects) [2, 7]: 0
TEAE Hemoglobin decreased: no. of subjects (percent of subjects) [2, 7]: 0
TEAE Hepatobiliary disorders: no. of subjects (percent of subjects) [2, 7]: 1 (8.3)
TEAE Hyperbilirubinemia: no. of subjects (percent of subjects) [2, 7]: 1 (8.3)
TEAE Hypertriglyceridemia: no. of subjects (percent of subjects) [2, 7]: 1 (8.3)
TEAE Hyperuricemia: no. of subjects (percent of subjects) [2, 7]: 0
TEAE Hypophosphatemia: no. of subjects (percent of subjects) [2, 7]: 0
TEAE Investigations: no. of TEAEs [2, 7]: 2
TEAE Investigations: no. of subjects (percent of subjects) [2, 7]: 2 (16.7)
TEAE Lymphocyte count decreased: no. of subjects (percent of subjects) [2, 7]: 0
TEAE Metabolism and nutrition disorders: no. of subjects (percent of subjects) [2, 7]: 1 (8.3)
TEAE Occult blood in urine: no. of TEAEs [2, 7]: 1
TEAE Occult blood in urine: no. of subjects (percent of subjects) [2, 7]: 1 (8.3)
TEAE Overall total: no. of TEAEs [2, 7]: 4
TEAE Overall total: no. of subjects (percent of subjects) [2, 7]: 4 (33.3)
TEAE Red blood cell increased: no. of subjects (percent of subjects) [2, 7]: 0
TEAE Total bile acid increased: no. of subjects (percent of subjects) [2, 7]: 0
TEAE White blood cell increased: no. of subjects (percent of subjects) [2, 7]: 0
TEAE Overall total: no. of subjects (percent of subjects) ([2]; N = 12, treatment stage given by label, listed as itraconazole): 4
